Reference: article PMC10973839, “CHF6297: a novel potent and selective p38 MAPK inhibitor with robust anti-inflammatory activity and suitable for inhaled pulmonary administration as dry powder” (Frontiers in Pharmacology, 2024)

Columns and labels:
human p38α (MAPK14) = target: T1, human p38α (MAPK14) (Homo sapiens, UniProt Q16539); assay: AlphaScreen kinase activity assay, human p38α; format: biochemical
T1 construct: GST; purchased Invitrogen
Method: (§1) The inhibitory activity of CHF6297 was determined using an AlphaScreen® (PerkinElmer)-based kinase activity assay as previously described ([Armani et al., 2022]). Kinase reactions consisted of 25 mM 4-(2-hydroxyethyl)-1-piperazine ethanesulfonic acid (HEPES), pH 7.5; 10 mM MgCl2; 100 μM Na3VO4; 2 mM DTT; 0.05 mg/mL Tween^TM 20; 100 pM solution of p38α, p38β, p38δ, or p38γ (Invitrogen); 1% DMSO; and 0.3 μg/mL ATF-2 fusion protein (New England Biolabs). Compounds were incubated under these conditions for 2 h, at 25°C, prior to the initiation of kinase activity by the addition of 250 μM ATP. […] Detection was performed by measuring luminescence following the addition of AlphaScreen donor beads (PerkinElmer, 6765300) and Protein A AlphaScreen acceptor beads (PerkinElmer, 6760137), both at a final concentration of 20 μg/mL. IC50 values were determined from concentration–response curves. […]
(§2) CHF6297 was tested in biochemical enzymatic assays to determine its potency as an inhibitor of human p38α (MAPK14) and of the other human p38 isoforms, p38β (MAPK11), p38γ ([…]), and p38δ ([…]) ([Armani et al., 2022]). Activity in the primary screening assay was determined using AlphaScreen technology, in which a peptide (ATF2) is phosphorylated by the appropriate GST-tagged p38 protein isoform in the presence of CHF6297 at concentrations from semi-logarithmic dilutions. […]

human p38δ [1] = target: T2, human p38δ (Homo sapiens, UniProt O15264); assay: KINOMEscan competition binding assay (DiscoverX), p38δ; settings: read-out: Kd (mean ± s.d.)
T2 construct: GST; purchased Invitrogen
T2 sequence (O15264 1-365): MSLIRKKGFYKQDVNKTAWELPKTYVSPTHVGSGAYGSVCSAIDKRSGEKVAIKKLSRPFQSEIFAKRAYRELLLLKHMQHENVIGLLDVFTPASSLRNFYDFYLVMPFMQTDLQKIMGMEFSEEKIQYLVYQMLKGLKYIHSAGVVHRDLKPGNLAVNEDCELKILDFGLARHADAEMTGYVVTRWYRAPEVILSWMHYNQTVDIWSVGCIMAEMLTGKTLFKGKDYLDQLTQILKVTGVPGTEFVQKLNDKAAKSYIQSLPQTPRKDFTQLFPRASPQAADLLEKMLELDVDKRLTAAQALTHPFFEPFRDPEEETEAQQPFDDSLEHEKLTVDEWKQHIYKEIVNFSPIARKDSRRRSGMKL
Text: The KINOMEscan® platform (DiscoverX) was used, which uses a novel and proprietary active site-directed competition binding assay to quantitatively measure the interactions between human p38 isoforms and the target compound.

rat PBMCs = assay: TNF-α release in LPS-stimulated PBMCs; format: cell-based
Method: Peripheral blood mononuclear cells (PBMCs) were isolated from the blood of healthy human volunteers and Wistar rats (250–350 gr; Charles River, Calco, Italy) using a standard density gradient centrifugation technique. The citrated blood was placed onto Histopaque^TM and centrifuged. The PBMCs were then removed from the density gradient interface and washed in phosphate-buffered saline (PBS). The PBMCs were suspended in RPMI 1640 medium (without serum), aliquoted into a 96-well plate, and incubated at 37°C for 3 h in a humidified incubator. After incubation, the medium was replaced (with a medium containing 1% fetal bovine serum), and the plate was incubated at 37°C, for 1 h, in the presence of a test compound or the appropriate vehicle. LPS (10 ng/mL), or an appropriate vehicle control, was then added to the cells, and the plate was returned to the incubator for 18 h. Cell-free supernatants were removed and assayed for TNF-α levels using MSD plates on the SECTOR Imager 6000 (Meso Scale).

human p38γ = target: T3, human p38γ (Homo sapiens, UniProt P53778); assay: AlphaScreen kinase activity assay, human p38γ; format: biochemical
T3 construct: GST; purchased Invitrogen
T3 sequence (P53778 1-367): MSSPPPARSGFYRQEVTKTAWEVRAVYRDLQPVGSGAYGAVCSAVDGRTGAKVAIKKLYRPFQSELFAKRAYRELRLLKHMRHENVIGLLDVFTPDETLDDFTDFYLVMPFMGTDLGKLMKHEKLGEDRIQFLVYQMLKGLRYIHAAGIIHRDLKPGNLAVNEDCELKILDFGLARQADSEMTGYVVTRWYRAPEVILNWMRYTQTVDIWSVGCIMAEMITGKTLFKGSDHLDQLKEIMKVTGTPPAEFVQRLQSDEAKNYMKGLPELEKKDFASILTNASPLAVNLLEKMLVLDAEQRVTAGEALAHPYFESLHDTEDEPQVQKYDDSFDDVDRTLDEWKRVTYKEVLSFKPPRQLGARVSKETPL
Method: as §1, §2

human p38δ [2] = target: T2, human p38δ; assay: AlphaScreen kinase activity assay, human p38δ; format: biochemical
Method: as §1, §2

[3] = n = 3, read-out: IC50 (mean ± s.d.)

T1 sequence (Q16539 whole entry): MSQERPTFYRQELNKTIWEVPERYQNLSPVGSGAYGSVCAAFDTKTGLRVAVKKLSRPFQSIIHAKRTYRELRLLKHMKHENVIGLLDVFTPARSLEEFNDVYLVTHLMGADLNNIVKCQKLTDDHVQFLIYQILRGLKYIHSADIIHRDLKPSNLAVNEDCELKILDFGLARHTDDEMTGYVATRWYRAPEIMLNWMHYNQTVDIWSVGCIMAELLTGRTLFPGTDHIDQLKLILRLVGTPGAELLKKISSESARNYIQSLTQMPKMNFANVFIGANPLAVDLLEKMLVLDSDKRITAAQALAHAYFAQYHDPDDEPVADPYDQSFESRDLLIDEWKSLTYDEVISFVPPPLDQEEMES

Compound: C[C@H]1CCCCN1c1nnc2ccc(O[C@@H]3CC[C@H](NC(=O)Nc4cc(C(C)(C)C)nn4-c4cnn(CCN(C)C)c4)c4ccccc43)cn12 [CHF6297]
- IC50 fold-difference vs. human p38α (human p38α (MAPK14)): 1
- IC50 (human p38α (MAPK14); [3]): 0.14 ± 0.06 nM
- Kd (human p38δ [1]): > 1000 nM
- IC50 (rat PBMCs; PBMC, LPS 10 ng/mL, 18 h): 1.4 nM
- fold less potent than AZD7624 (rat PBMCs; TNF-α release): 7 fold
- IC50 fold-difference vs. human p38α (human p38γ): 6,750
- IC50 (human p38γ; [3]): 945 ± 58 nM
- IC50 fold-difference vs. human p38α (human p38δ [2]): >7,000
- IC50 (human p38δ [2]; [3]): > 1000 nM
